Patent US12338264B2, “Crystalline potassium salt of 2-O-α-D-glucosyl-L-ascorbic acid and method for producing the same” (NAGASE VIITA CO., LTD., priority 2019, dated 2025)

Experiments:
[1] = Hygroscopicity: mass increase on storage at 75.2% relative humidity; type: physicochemical; details: relative humidity 75.2%; for Increase rate of mass: at room temperature, after storage for 24 hours
Experimental: An experiment was carried out to compare the hygroscopicity of both the hydrous crystalline potassium salt of ascorbic acid 2-glucoside, obtained by the method in the Experiment 1, and the hydrous crystalline sodium salt of ascorbic acid 2-glucoside, obtained by the method described in Patent Literature 10. That is, 0.5 g each of the hydrous crystalline potassium salt of ascorbic acid 2-glucoside and the hydrous crystalline sodium salt of ascorbic acid 2-glucoside were weighted and stored in a desiccator conditioned to 75.2% relative humidity (RH) using saturated salt solution for 24 hours at room temperature. After that, the mass of each was measured, the mass increased by moisture absorption was determined, and the increase rate of mass {(Mass increased by storage)/(Mass at the beginning of storage)×100} (% by mass) was determined.

[2] = pH of 1% by mass aqueous solution; type: physicochemical; details: dissolved in deionized water
Experimental: 1% by mass of aqueous solution of the crystal obtained in Experiment 1 was prepared and its pH was measured.
A commercially available particulate composition containing anhydrous crystalline ascorbic acid 2-glucoside (product name “Ascofresh” (registered trademark), commercialized by Hayashibara Co., Ltd., Okayama, Japan) and a hydrous crystalline potassium salt of ascorbic acid 2-glucoside, obtained by the method in the Experiment 1 were made into compositions with the ratios by mass ranging from 100:0 to 0:100 as shown in Table 3. Each of the resulting compositions was dissolved in deionized water to give a concentration of 1% by mass, following by measuring the pHs of the resulting solutions.

Row | Molecule | Increase rate of mass [1] | Increase rate of mass relative to that of the hydrous crystalline sodium salt of ascorbic acid 2-glucoside ([1]; room temperature, 24 hours) | pH of 1% by mass aqueous solution [2]
1 | O=C1O[C@H]([C@@H](O)CO)C([O-])=C1O[C@H]1O[C@H](CO)[C@@H](O)[C@H](O)[C@H]1O.[K+] [hydrous crystalline potassium salt of ascorbic acid 2-glucoside] | 9.1 % by mass | under 60% | 12.7
2 | O=C1O[C@H]([C@@H](O)CO)C(O)=C1O[C@H]1O[C@H](CO)[C@@H](O)[C@H](O)[C@H]1O [2-O-α-D-Glucosyl-L-ascorbic acid] | – | – | 2.2
3 | hydrous crystalline sodium salt of ascorbic acid 2-glucoside [reference compound] | 15.8 % by mass | – | –
